Patent US9464007B2, “Antifungal wallboards and building materials and methods for the production thereof” (priority 2004, dated 2016)
Values after ≈ are worked out from the molar mass of the structure shown. Read-outs that look alike come from different tables or passages of the source.

How the values were obtained:
Format in all cases: cell-based
[1] = system: Cladosporium cladosporioides; experiment: Fungal growth on agar medium containing fungicide, petri dish, visual assessment
Description: (§1) A fungal growth medium was made comprising yeast extract (4 g) agar (8 g), magnesium sulphate (0.2 g), sodium nitrate (2.4 g), potassium chloride (0.2 g), potassium dihydrogen orthophosphate (0.6 g), glycerol (8 ml), distilled water (390 ml). Fungicides as set out in Tables 1 to 4 were added at levels of 5000, 100, 10, 1, 0.1 and 0.01 mg fungicide/liter of growth medium to give six different growth medium compositions for each fungicide. These growth media containing the fungicide were each put into petri dishes.
(§2) Cladosporium cladosporoides, Oligoporus placenta, Stachybotrys chartarum and Memnionella echinata were separately propagated on Luria agar to suppress sporulation and mycelial plugs were transferred upside down onto the petri dishes containing the growth medium.
(§3) A visual assessment was made of the surface of the petri dishes. The result recorded was the percentage of the surface that remained free of fungus. This was recorded as percentage activity
(§4) For each fungicide, a graph was drawn of percentage activity against concentration of fungicide in the growth medium. From this graph, the concentrations of fungicide required to achieve 50%, 80% and 95% activity was estimated. These figures are given in the results tables.
3. Cladosporium cladosporioides; Results after 26 days at 20° C.

Oligoporus placenta = experiment: as above
Description: as §1, §2, §3, §4
4. Oligoporus placenta; Results.

Memnionella echinata = experiment: as above; conditions: after 23 days at 25° C.
Description: as §1, §2, §3, §4
2. Memnionella echinata; Results after 23 days at 25° C.

Aureobasidium pullulans [2] = experiment: Synergy testing of 2-way mixtures, 24 well plates; conditions: A. pullulans
Description: (§5) For synergism testing of the 2-way mixtures 100 ul of each fungicide were filled into the 24 well plates (8 different rates) and 800 ul of 0.3% PDA media containing the spore suspension was added (see above). Different ratios of the 2 fungicide rates were tested at the same time.
(§6) Alternaria tenuissima, Penicillium citrinum, Stachybotrys chartarum, Aspergillus niger and Aureobasidium pullulans were separately cultivated on PDA media to […] sporulation. Spore suspensions were produced for each fungi.
(§7) For the mixtures of different fungicides the synergism was calculated based on the Colby equation, which is described below: […]
(§8) The fungicidal action to be expected, We, for a given combination of two fungicides can be calculated as follows (see COLBY, S. R. “Calculating synergistic and antagonistic response of herbicide combinations”. Weeds 15, pages 20-22; 1967): We=X+[Y×(100−X)/100] wherein:
(§9) If the activity actually observed is greater than the expected value We, there is a synergistic effect.
(§10) All rates below are expressed as mg ai/l (i.e. ppm).

Aspergillus niger [3] = experiment: Synergy testing of 2-way mixtures, 24 well plates; conditions: A. niger
Description: as §5, §6, §7, §8, §9, §10

Stachybotrys chartarum [4] = experiment: Fungal growth on agar medium containing fungicide, petri dish, visual assessment
Description: as §1, §2, §3, §4
1. Stachybotrys chartarum; Results after 22 days at 25° C.

Penicillium citrinum = experiment: Liquid culture assay on 24 well plates, solo ai (EC95/MIC); conditions: for EC95: 24° C., 3-6 days; for MIC: Penicillium citrinum, read-out: MIC Minimal Inhibition concentration
Description: as §6
(§11) Test method used: liquid culture assay on 24 well plates.
(§12) For solo (i.e. single) ai testing the formulated fungicide (100 ul) was filled into the 24 well plates (8 different rates: 100-0.05 mg ai/l final volume as described above) and 100 ul distilled water was added. Afterwards 800 ul of 0.3% PDA media was added to the plate. The spore suspension of the specific fungi was added to this media in advance containing approx. 100.000 spores/ml. The 24 well plates were sealed and incubated at 24° C.
(§13) Dependent on the growth properties of each organisms, the evaluation was done after 3 to 6 days, when the surface of the check well was covered with mycelium. The evaluation was performed by assessing the growth of the fungi related to the check growth. The results are expressed as % activity relative to the check (values of 0-100% growth). Afterwards the results were converted in % growth inhibition. EC95 values and also MIC (minimal inhibition concentration) values were derived for each compound.
(§14) For each solo compound a graph was drawn of percentage inhibition against the concentration of the fungicide. […] Also the concentration that gave the minimum inhibition concentration was derived as MIC value

Aureobasidium pullulans [5] = experiment: as above; conditions: for EC95: 24° C., 3-6 days; for MIC: Aureobasidium pullulans, read-out: MIC Minimal Inhibition concentration
Description: as §6, §11, §12, §13, §14

Alternaria tenuissima = experiment: as above; conditions: for EC95: 24° C., 3-6 days; for MIC: Alternaria tenuissima, read-out: MIC Minimal Inhibition concentration
Description: as §6, §11, §12, §13, §14

Stachybotrys chartarum [6] = experiment: as above; conditions: for EC95: 24° C., 3-6 days; for MIC: Stachybotrys chartarum, read-out: MIC Minimal Inhibition concentration
Description: as §6, §11, §12, §13, §14

Aspergillus niger [7] = experiment: as above; conditions: for EC95: 24° C., 3-6 days; for MIC: Aspergillus niger, read-out: MIC Minimal Inhibition concentration
Description: as §6, §11, §12, §13, §14

Stachybotrys chartarum [8] = experiment: Synergy testing of 2-way mixtures, 24 well plates; conditions: S. chartarum; rate (FDL) 0.05 mg ai/l
Description: as §5, §6, §7, §8, §9, §10

[9] = P. citrinum, rates 0-100 mg ai/l, mean values of n = 5
[10] = A. pullulans, rates 0-100 mg ai/l, mean values of n = 5
[11] = A. tenuissima, rates 0-100 mg ai/l, mean values of n = 5
[12] = S. chartarum, rates 0-100 mg ai/l, mean values of n = 5
[13] = A. niger, rates 0-100 mg ai/l, mean values of n = 5

In the case of `c1ccc2[nH]c(-c3cscn3)nc2c1` [Thiabendazole], the “Concentration required for 95% Activity” value [1] is reported as 8 mg/L, the EC50 ([1]; 624 h, after 26 days at 20° C., read-out: Concentration required for 50% Activity) is reported as 0.78 µg/mL (≈ 3.88 µM) and the “Concentration required for 80% Activity” value ([1]; after 26 days at 20° C.) is reported as 3.5 mg/L. The “Concentration required for 95% Activity” value (Oligoporus placenta) was >5000 mg/L, the EC50 (Memnionella echinata; 552 h, read-out: Concentration required for 50% Activity) was 28 µg/mL (≈ 139 µM) and the “Concentration required for 80% Activity” value (Memnionella echinata) was 65 mg/L. The “inh % (TBZ alone)” value (Aureobasidium pullulans [2]; rate (TBZ) 12.5 mg ai/l) was 70%, the “inh % (TBZ alone)” value (Aspergillus niger [3]; rate (TBZ) 1.6 mg ai/l) was 10% and the “Concentration required for 95% Activity” value (Stachybotrys chartarum [4]) was 91 mg/L. The EC50 (Stachybotrys chartarum [4]; 528 h, after 22 days at 25° C., read-out: Concentration required for 50% Activity) was 17 µg/mL (≈ 84.5 µM), the “Concentration required for 80% Activity” value (Stachybotrys chartarum [4]; after 22 days at 25° C.) was 49 mg/L and the EC95 (Penicillium citrinum; P. citrinum) was 0.72 mg ai/l. For the same compound, the MIC (Penicillium citrinum; [9]) was 0.8 µg/mL (≈ 3.98 µM), the EC95 (Aureobasidium pullulans [5]; A. pullulans) was 15 mg ai/l and the MIC (Aureobasidium pullulans [5]; [10]) was 50 µg/mL (≈ 248 µM). The EC95 (Alternaria tenuissima; A. tenuissima) was >100 mg ai/l, the MIC (Alternaria tenuissima; [11]) was > 100 µg/mL and the EC95 (Stachybotrys chartarum [6]; S. chartarum) was 46 mg ai/l. It also gave an MIC (Stachybotrys chartarum [6]; [12]) of 50 µg/mL (≈ 248 µM), an EC95 (Aspergillus niger [7]; A. niger) of 3.1 mg ai/l and an MIC (Aspergillus niger [7]; [13]) of 3.1 µg/mL (≈ 15.4 µM).

`N#Cc1c[nH]cc1-c1cccc2c1OC(F)(F)O2` [Fludioxonil] was tested, and the “inh % (FDL alone)” value (Aureobasidium pullulans [2]; rate (FDL) 0.8 mg ai/l) was 10%, the “inh % (FDL alone)” value (Aureobasidium pullulans [2]; rate (FDL) 1.6 mg ai/l) was 10% and the “inh % (FDL alone)” value (Aureobasidium pullulans [2]; rate (FDL) 3.1 mg ai/l) was 10%. The “inh % (FDL alone)” value (Aureobasidium pullulans [2]; rate (FDL) 12.5 mg ai/l) was 10%, the “inh % (FDL alone)” value (Aureobasidium pullulans [2]; rate (FDL) 50 mg ai/l) was 10% and the “inh % (FDL alone)” value (Aureobasidium pullulans [2]; rate (FDL) 100 mg ai/l) was 10%. The “inh % (FDL alone)” value (Stachybotrys chartarum [8]) was 10%, the “inh % (FDL alone)” value (Aspergillus niger [3]; rate (FDL) 0.05 mg ai/l) was 0% and the “inh % (FDL alone)” value (Aspergillus niger [3]; rate (FDL) 0.2 mg ai/l) was 30%. For the same compound, the “inh % (FDL alone)” value (Aspergillus niger [3]; rate (FDL) 0.8 mg ai/l) was 30%, the “inh % (FDL alone)” value (Aspergillus niger [3]; rate (FDL) 1.6 mg ai/l) was 30% and the “inh % (FDL alone)” value (Aspergillus niger [3]; rate (FDL) 3.1 mg ai/l) was 30%. For the same compound, the “inh % (FDL alone)” value (Aspergillus niger [3]; rate (FDL) 12.5 mg ai/l) was 30%, the “inh % (FDL alone)” value (Aspergillus niger [3]; rate (FDL) 50 mg ai/l) was 30% and the “inh % (FDL alone)” value (Aspergillus niger [3]; rate (FDL) 100 mg ai/l) was 30%. The EC95 (Penicillium citrinum; P. citrinum) was 0.18 mg ai/l, the MIC (Penicillium citrinum) was 0.2 µg/mL (≈ 0.806 µM) and the EC95 (Aureobasidium pullulans [5]; A. pullulans) was >100 mg ai/l. For the same compound, the MIC (Aureobasidium pullulans [5]) was > 100 µg/mL, the EC95 (Alternaria tenuissima; A. tenuissima) was 1.3 mg ai/l and the MIC (Alternaria tenuissima) was 1.6 µg/mL (≈ 6.45 µM). The EC95 (Stachybotrys chartarum [6]; S. chartarum) was 0.18 mg ai/l, the MIC (Stachybotrys chartarum [6]) was 0.2 µg/mL (≈ 0.806 µM) and the EC95 (Aspergillus niger [7]; A. niger) was >100 mg ai/l. The MIC (Aspergillus niger [7]) was > 100 µg/mL.

With `Cc1cc(C2CC2)nc(Nc2ccccc2)n1` [Cyprodinil] the “inh % (CDL alone)” value (Aureobasidium pullulans [2]; rate (CDL) 0.8 mg ai/l) was 0%, the “inh % (CDL alone)” value (Aureobasidium pullulans [2]; rate (CDL) 1.6 mg ai/l) was 10% and the “inh % (CDL alone)” value (Aureobasidium pullulans [2]; rate (CDL) 3.1 mg ai/l) was 10%. For the same compound, the “inh % (CDL alone)” value (Aureobasidium pullulans [2]; rate (CDL) 12.5 mg ai/l) was 30%, the “inh % (CDL alone)” value (Aureobasidium pullulans [2]; rate (CDL) 50 mg ai/l) was 30% and the “inh % (CDL alone)” value (Aureobasidium pullulans [2]; rate (CDL) 100 mg ai/l) was 30%. The EC95 (Penicillium citrinum; P. citrinum) was >100 mg ai/l, the MIC (Penicillium citrinum; [9]) was > 100 µg/mL and the EC95 (Aureobasidium pullulans [5]; A. pullulans) was >100 mg ai/l. The MIC (Aureobasidium pullulans [5]; [10]) was > 100 µg/mL, the EC95 (Alternaria tenuissima; A. tenuissima) was >100 mg ai/l and the MIC (Alternaria tenuissima; [11]) was > 100 µg/mL. It also gave an EC95 (Stachybotrys chartarum [6]; S. chartarum) of 46 mg ai/l, an MIC (Stachybotrys chartarum [6]; [12]) of 50 µg/mL (≈ 222 µM) and an EC95 (Aspergillus niger [7]; A. niger) of 7.4 mg ai/l. For the same compound, the MIC (Aspergillus niger [7]; [13]) was 12.5 µg/mL (≈ 55.5 µM).
